Measured values taken from patent US20210023065A1, “AMPHIPHILIC THIOL COMPOUNDS AND USES THEREOF” (THE REGENTS OF THE UNIVERSITY OF CALIFORNIA, priority 2018, published 2021).

Assays:
[1] = tested on: AKT1 (pS473); test: Detection of AKT1 phosphorylation in T24 cells (western blot); assay type: cell-based, human; settings: T24 cells (oncogenic HRas mutation), 1.25 μmol/10^7 cells, 1 h
Procedure: T24 cells were grown to confluency in 6 cm plates. Stock solutions of compounds were prepared in DMSO as before and diluted to the final indicated concentration in 2 mL of OptiMEM media before adding to cells. Cells were incubated at 37° C. for 1 h and then media removed and 1.5 mL of HBSS added to each plate. Cells were detached using a cell scraper, pelleted by centrifugation at 1,000 rcf for 5 min and the pellet processed using MPER™ Mammalian Protein Extraction Reagent (ThermoFisher) with the addition of Halt Protease Inhibitor Cocktail (ThermoFisher) and 1 mM sodium orthovanadate. Samples were resolved by electrophoresis using 4-20% SDS-polyacrylamide gels (Bio-Rad) under denaturing and reducing conditions. Proteins were then electrotransferred to a PVDF membrane (Bio-Rad). The membrane was blocked with 3% BSA and then subjected to immunoblot analysis using AKT/MAPK Signaling Pathway Antibody Cocktail (ab151279) (Abcam) and secondary goat anti-rabbit IgG-HRP (sc-2030) (Santa Cruz Biotechnology). Chemiluminescent detection was performed by using SuperSignal West Pico PLUS chemiluminescent substrate (ThermoFisher) according to the manufacturer's instructions.
Assays were performed in 3 biological replicates. Western blots were analyzed using ImageJl. The intensity of the protein band in each condition was normalized to the intensity of the corresponding loading control (Rab11). […]

[2] = AMD model reaction with S-palmitoyl MESNA (HPLC/ELSD/MS); settings: 5 mM each reactant, NaH2PO4 buffer 200 mM pH 7.1, 10 mM TCEP, 25° C.
Procedure: The reaction was stirred at 25° C. and aliquots taken at the specified time points and subjected to HPLC/ELSD/MS analysis (Eclipse Plus C8 analytical column, 50-95% MeOH in H2O with 0.1% TFA, 0-7 min; 95% MeOH in H2O with 0.1% TFA, 7 min-end).

[3] = target: T1, lyric/metadherin (Homo sapiens, UniProt Q86UE4); test: Acyl resin-assisted capture detection of lyric/metadherin palmitoylation in HeLa cells; assay type: cell-based; settings: 1.25 μmol/10^7 cells, relative to vehicle
T1 construct: we detected the palmitoylation levels of eight known palmitoylated proteins after treatment with 1; endogenous in cells; host or cells: HeLa
T1 sequence (Q86UE4 1-582): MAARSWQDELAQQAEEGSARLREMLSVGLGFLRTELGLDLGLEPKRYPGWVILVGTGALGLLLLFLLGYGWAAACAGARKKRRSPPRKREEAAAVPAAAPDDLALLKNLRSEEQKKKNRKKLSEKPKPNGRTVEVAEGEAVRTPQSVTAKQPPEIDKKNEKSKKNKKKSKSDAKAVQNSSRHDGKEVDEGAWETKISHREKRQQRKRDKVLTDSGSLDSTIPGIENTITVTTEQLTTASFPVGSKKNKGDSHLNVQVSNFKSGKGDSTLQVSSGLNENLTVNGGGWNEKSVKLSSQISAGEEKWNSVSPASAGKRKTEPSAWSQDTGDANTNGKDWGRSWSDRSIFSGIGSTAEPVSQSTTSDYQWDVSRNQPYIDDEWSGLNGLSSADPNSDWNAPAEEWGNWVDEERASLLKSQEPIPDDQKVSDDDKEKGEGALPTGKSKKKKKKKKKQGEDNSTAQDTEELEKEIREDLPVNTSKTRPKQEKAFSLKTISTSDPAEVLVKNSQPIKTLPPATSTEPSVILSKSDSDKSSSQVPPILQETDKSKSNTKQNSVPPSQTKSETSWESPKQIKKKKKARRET
Procedure: HeLa cells were grown to confluency in 10 cm plates. Stock solutions of compounds were prepared in DMSO as before and diluted to the final indicated concentration in 5.5 mL of OptiMEM media before adding to cells. Cells were incubated at 37° C. for 20 min and then media removed and 3 mL of HBSS added to each plate. Cells were detached using a cell scraper, pelleted by centrifugation at 1,000 rcf for 5 min and the pellet processed using a CAPTUREome S-Palmitoylated Protein Kit (Badrilla, UK) according to the manufacturer's protocol. Samples were resolved by electrophoresis using 4-20% SDS-polyacrylamide gels (Bio-Rad) under denaturing and reducing conditions. Proteins were then electrotransferred to a PVDF membrane (Bio-Rad). […]
Assays were performed in 3 biological replicates. […] Western blots were analyzed using ImageJ^1. […]

In the case of CCCCCCCCNC(=O)[C@@H](N)CS [compound 1, H2N-L-Cys-Oct], the AKT1 phosphorylation [1] is reported as “near complete abrogation”, the “reaction with MESNA thiopalmitate 3 (cleavage of model S-palmitoyl group, ligation product 4)” value [2] is reported as “proceeded rapidly and irreversibly” and the “reduction of palmitoylation level of lyric/metadherin” value [3] is reported as greater than 80%.
